Reference: article PMC8812735, “Discovery of triterpenoids as potent dual inhibitors of pancreatic lipase and human carboxylesterase 1” (Journal of Enzyme Inhibition and Medicinal Chemistry, 2022)
Like-named read-outs stand apart in the source and are kept apart here.

How the values were obtained:
Pancreatic lipase (PL) = molecular target: T1, Pancreatic lipase (PL) (Sus scrofa, UniProt P00591); experiment: Inhibition of PL-mediated 4-MUO hydrolysis; format: biochemical; details: 4-MUO substrate, mean ± SD (n = 3)
T1 construct: purchased Sigma Aldrich type II, Lot.SLBN9099V
T1 sequence (P00591 1-450): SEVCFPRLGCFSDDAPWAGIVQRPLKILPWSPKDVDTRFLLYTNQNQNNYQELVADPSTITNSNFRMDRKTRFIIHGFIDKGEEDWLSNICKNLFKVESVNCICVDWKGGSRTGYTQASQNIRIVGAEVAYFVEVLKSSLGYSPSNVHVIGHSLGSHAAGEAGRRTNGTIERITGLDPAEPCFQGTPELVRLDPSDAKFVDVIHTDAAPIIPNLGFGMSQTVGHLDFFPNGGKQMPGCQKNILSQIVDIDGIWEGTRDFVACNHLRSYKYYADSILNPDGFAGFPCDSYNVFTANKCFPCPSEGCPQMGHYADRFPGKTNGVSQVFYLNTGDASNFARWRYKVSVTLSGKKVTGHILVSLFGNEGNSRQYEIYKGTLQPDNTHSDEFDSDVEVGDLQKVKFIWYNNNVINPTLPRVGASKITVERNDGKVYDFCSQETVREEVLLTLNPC
Protocol: In addition, the background fluorescence in the absence of an enzyme source (PL) (add the same amount of citrate-Na2HPO4 buffer) was measured. […] Then start the reaction by adding 2 µL of 4-MUO probe (3 µM, final concentration). The fluorescence signal of 4-MU (hydrolytic metabolite) was detected by multi-mode microplate reader (SpectraMax M4, Molecular Devices, Urstein, Austria) with continuous oscillation for 20 min and recorded and analysed at 60 s intervals. The excitation wavelength and emission wavelength of 4-MU were set at 340 nm and 460 nm, respectively, and the gain value was 500.
(§1) Subsequently, various concentrations of substrates (selected according to Km) and different concentrations of inhibitors were used to determine the corresponding reaction rate, and the second slope graph of the Lineweaver–Burk diagram was used as a function of the inhibitor to calculate the corresponding inhibition constant (Ki) value. All kinetic data were fitted by the following kinetic equations (a–c), for competitive (a), non-competitive (b) and mixed inhibition (c): (a) V=(VmaxS)/[Km(1+I/Ki)+S] (b) V=(VmaxS)/[(Km+S)×(1+I/Ki)] (c) V=(VmaxS)/[(Km+S)×(1+I/αKi)] where V is the hydrolytic velocity of the reaction, Vmax is the maximum velocity. S and I are substrate (4-MUO, NLMe) and inhibitor (compound 39/41) concentrations, respectively. Ki is the inhibition constant of the tested inhibitor against the target PL and hCES1A; Km is the Michaelis constant (the substrate concentration at half of the Vmax).
All measurements were made in triplicate and the data obtained in the experiment were shown as mean ± SD.

hCES1A = molecular target: T2, hCES1A (Homo sapiens, UniProt P23141); experiment: Inhibition of hCES1A-mediated NLMe hydrolysis in human liver microsomes; format: biochemical
T2 construct: tissue Bioreclamation IVT lot No. X008067; host or cells: pooled human liver microsomes from 50 donors
T2 sequence (P23141 18-567): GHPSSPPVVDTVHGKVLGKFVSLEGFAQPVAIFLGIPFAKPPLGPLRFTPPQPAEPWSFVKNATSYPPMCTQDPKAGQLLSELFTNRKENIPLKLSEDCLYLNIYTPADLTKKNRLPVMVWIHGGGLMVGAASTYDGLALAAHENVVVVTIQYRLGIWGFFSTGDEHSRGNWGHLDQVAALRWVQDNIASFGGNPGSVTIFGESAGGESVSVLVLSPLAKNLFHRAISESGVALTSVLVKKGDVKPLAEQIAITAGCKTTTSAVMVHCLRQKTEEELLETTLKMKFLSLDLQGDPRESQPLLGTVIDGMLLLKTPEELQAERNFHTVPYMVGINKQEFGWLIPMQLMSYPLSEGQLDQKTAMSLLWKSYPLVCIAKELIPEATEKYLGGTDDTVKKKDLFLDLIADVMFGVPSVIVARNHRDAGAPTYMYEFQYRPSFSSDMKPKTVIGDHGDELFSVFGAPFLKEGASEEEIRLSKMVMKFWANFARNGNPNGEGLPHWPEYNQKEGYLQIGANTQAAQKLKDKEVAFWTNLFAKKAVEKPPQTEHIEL
Protocol: N-Alkylated D-luciferin methyl ester (NLMe), a Specific probe for hCES1A[45], was used for assessing the inhibitory effects for triterpenoids, and BNPP was used as a positive inhibitor of hCES1A. […] Then NLMe (2 µL, 0.15 mM) was added to start the reaction. After shaking the reaction in 37 °C incubator for 10 min, 50 µL of reaction solution was removed and mixed with LDR (50 µL) to terminate the reaction. A multi-mode microplate reader was used to detect the luminescence signal of NL (the hydrolysed metabolite of NLMe). The luminescence product of NL was measured at 580 nm (gain: 140). The final volume ratio of DMSO was less than 1% (V/V).
as §1
All measurements were made in triplicate and the data obtained in the experiment were shown as mean ± SD. The IC50 and Ki values of the compounds with strong inhibitory effect were evaluated by nonlinear regression with graphpad prism 7.0 software (GraphPad Software, Inc., La Jolla, CA).

[1] = NLMe substrate, HLM, mean ± SD (n = 3), read-out: IC50 (µM) hCES1A

Row | IC50 (Pancreatic lipase (PL)) | IC50 (hCES1A; [1]) | SMILES | IC50 (hCES1A)
1 | 8.63 ± 0.84 µM | 0.04 ± 0.003 µM | CC1(C)CC[C@]2(C(=O)O)CC[C@]3(C)C(=CC[C@@H]4[C@@]5(C)CC[C@H](O)C(C)(C)[C@@H]5CC[C@]43C)[C@@H]2C1 [Compound 1, oleanolic acid] | 
2 | > 100 µM |  | CC1(C)CC[C@]2(C(=O)O)[C@H](O)C[C@]3(C)C(=CC[C@@H]4[C@@]5(C)C[C@@H](O)[C@H](O)[C@@](C)(CO)[C@@H]5CC[C@]43C)[C@@H]2C1 [Compound 4, polygalacic acid] | 
3 | 0.42 ± 0.05 µM | > 100 µM | C[C@H]1[C@H](C)CC[C@]2(C)CC[C@]3(C)C(=CC[C@@H]4[C@@]5(C)CC[C@@H](O)[C@](C)(C(=O)O)[C@@H]5CC[C@]43C)[C@H]12 [Compound 8, β-Boswellic acid] | 
4 | > 100 µM |  | C=C(C)[C@@H]1CC[C@]2(C=O)CC[C@]3(C)[C@H](CC[C@@H]4[C@@]5(C)CC[C@H](O)C(C)(C)[C@@H]5CC[C@]43C)[C@@H]12 [Compound 13] | 
5 | > 100 µM |  | C=C(C)[C@@H]1CC[C@]2(C(=O)O)CC[C@]3(C)[C@H](CC[C@@H]4[C@@]5(C)CC[C@H](O)C(C)(C)[C@@H]5CC[C@]43C)[C@@H]12 [Compound 14] | 
6 | > 100 µM |  | CC(CC(=O)C[C@@H](C)[C@H]1CC(=O)[C@@]2(C)C3=C(C(=O)C[C@]12C)[C@@]1(C)CC[C@H](O)C(C)(C)[C@@H]1C[C@@H]3O)C(=O)O (stereo partly shown) [Compound 17, ganoderic acid B] | 
7 | > 100 µM |  | CC(C)=CCC[C@](C)(O[C@@H]1O[C@H](CO)[C@@H](O)[C@H](O)[C@H]1O)[C@H]1CC[C@]2(C)[C@@H]1[C@H](O)C[C@@H]1[C@@]3(C)CC[C@H](O)C(C)(C)[C@@H]3[C@@H](O[C@@H]3O[C@H](CO)[C@@H](O)[C@H](O)[C@H]3O[C@@H]3O[C@@H](C)[C@H](O)[C@@H](O)[C@H]3O)C[C@]12C [Compound 21] | 
8 | > 100 µM |  | CC(C)=CCC[C@](C)(O)[C@H]1CC[C@]2(C)[C@@H]1[C@H](O)C[C@@H]1[C@@]3(C)CC[C@H](O)C(C)(C)[C@@H]3[C@@H](O[C@@H]3O[C@H](CO)[C@@H](O)[C@H](O)[C@H]3O[C@@H]3O[C@@H](C)[C@H](O)[C@@H](O)[C@H]3O)C[C@]12C [Compound 23] | 
9 | > 100 µM |  | CC1(C)CC[C@]2(C(=O)O[C@@H]3O[C@H](CO)[C@@H](O)[C@H](O)[C@H]3O)CC[C@]3(C)C(=CC[C@@H]4[C@@]5(C)CC[C@H](O[C@@H]6O[C@H](C(=O)O)[C@@H](O)[C@H](O)[C@H]6O[C@@H]6O[C@H](CO)[C@@H](O)[C@H](O)[C@H]6O)C(C)(C)[C@@H]5CC[C@]43C)[C@@H]2C1 [Compound 26] | 
10 |  | 0.035 ± 0.003 µM | CCCCCCCCCCC[C@@H](C[C@@H]1OC(=O)[C@H]1CCCCCC)OC(=O)[C@H](CC(C)C)NC=O [Compound 28, Orlistat, reference compound] | 

More lines, now with the values behind:

Row | SMILES | IC50 (Pancreatic lipase (PL)) | IC50 (hCES1A; [1]) | IC50 (hCES1A)
11 | CC1(C)CC[C@]2(C(=O)O)CC[C@]3(C)C(=CC[C@@H]4[C@@]5(C)C[C@@H](O)[C@H](O)C(C)(C)[C@@H]5CC[C@]43C)[C@@H]2C1 [Compound 2, maslinic acid] | 16 ± 4.59 µM |  | 0.12 ± 0.01 µM
12 | C[C@H]1[C@H](C)CC[C@]2(C(=O)O)CC[C@]3(C)C(=CC[C@@H]4[C@@]5(C)CC[C@H](O)C(C)(C)[C@@H]5CC[C@]43C)[C@H]12 [Compound 5, ursolic acid] | 6.16 ± 0.97 µM | 0.04 ± 0.004 µM | 
13 | C[C@H]1[C@H](C)CC[C@]2(C(=O)O)CC[C@]3(C)C(=CC[C@@H]4[C@@]5(C)C[C@@H](O)[C@H](O)C(C)(C)[C@@H]5CC[C@]43C)[C@H]12 [Compound 6, corosolic acid] | 12.8 ± 1.44 µM |  | 0.34 ± 0.04 µM
14 | CC1(C)[C@@H](O)CC[C@]2(C)[C@H]3C(=O)C=C4[C@@H]5C[C@@](C)(C(=O)O)CC[C@]5(C)CC[C@@]4(C)[C@]3(C)CC[C@@H]12 [Compound 9, glycyrrhetic acid] | 28.3 ± 9.47 µM |  | 
15 | CC1(C)[C@@H](O[C@H]2O[C@H](C(=O)O)[C@@H](O)[C@H](O)[C@H]2O[C@@H]2O[C@H](C(=O)O)[C@@H](O)[C@H](O)[C@H]2O)CC[C@]2(C)[C@H]3C(=O)C=C4[C@@H]5C[C@@](C)(C(=O)O)CC[C@]5(C)CC[C@@]4(C)[C@]3(C)CC[C@@H]12 [Compound 10, glycyrrhizic acid] | > 100 µM |  | 
16 | CC1=C(O)C(=O)C=C2C1=CC=C1[C@@]2(C)CC[C@@]2(C)[C@@H]3C[C@](C)(C(=O)O)CC[C@]3(C)CC[C@]12C [Compound 11, Celastrol] | 4.69 ± 0.37 µM |  | 14.3 ± 3.03 µM
17 | C=C(C)[C@@H]1CC[C@]2(C)CC[C@]3(C)[C@H](CC[C@@H]4[C@@]5(C)CC[C@H](O)C(C)(C)[C@@H]5CC[C@]43C)[C@@H]12 [Compound 15] | > 100 µM |  | 
18 | C=C(CC[C@@H](C(=O)O)[C@H]1[C@H](O)C[C@@]2(C)C3=C(CC[C@]12C)[C@@]1(C)CC[C@H](OC(C)=O)C(C)(C)[C@@H]1CC3)C(C)C [Compound 16, pachymic acid] | > 100 µM |  | 
19 | CC(C)=CCC[C@](C)(O[C@@H]1O[C@H](CO)[C@@H](O)[C@H](O)[C@H]1O)[C@H]1CC[C@]2(C)[C@@H]1[C@H](O)C[C@@H]1[C@@]3(C)CC[C@H](O)C(C)(C)[C@@H]3[C@@H](O)C[C@]12C [Compound 18] | > 100 µM |  | 
20 | CC(C)=CCC=C(C)C1CCC2(C)C1C(O)CC1C3(C)CCC(O)C(C)(C)C3C(OC3OC(CO)C(O)C(O)C3OC3OC(C)C(O)C(O)C3O)CC12C (stereo not shown) [Compound 19] | 74.5 ± 28.4 µM |  | 
21 | CC(C)=CCCC(C)(OC1OC(CO)C(O)C(O)C1O)C1CCC2(C)C1C(O)CC1C3(C)CCC(O)C(C)(C)C3C(OC3OC(CO)C(O)C(O)C3OC3OC(CO)C(O)C(O)C3O)CC12C (stereo not shown) [Compound 20] | 29.7 ± 5.02 µM |  | 
22 | CC(C)=CCC[C@](C)(O[C@@H]1O[C@H](CO)[C@@H](O)[C@H](O)[C@H]1O)[C@H]1CC[C@]2(C)[C@@H]1[C@H](O)C[C@@H]1[C@@]3(C)CC[C@H](O)C(C)(C)[C@@H]3[C@@H](O[C@@H]3O[C@H](CO)[C@@H](O)[C@H](O)[C@H]3O)C[C@]12C [Compound 22] | > 100 µM |  | 
23 | CC(C)=CCC[C@](C)(O)[C@H]1CC[C@]2(C)[C@@H]1[C@H](O)C[C@@H]1[C@@]3(C)CC[C@H](O)C(C)(C)[C@@H]3[C@@H](O[C@@H]3O[C@H](CO)[C@@H](O)[C@H](O)[C@H]3O)C[C@]12C [Compound 24] | > 100 µM |  | 
24 | CC(C)=CC/C=C(\C)[C@H]1CC[C@]2(C)[C@@H]1[C@H](O)C[C@@H]1[C@@]3(C)CC[C@H](O)C(C)(C)[C@@H]3[C@@H](O[C@@H]3O[C@H](CO)[C@@H](O)[C@H](O)[C@H]3O)C[C@]12C [Compound 25] | > 100 µM |  | 
25 | CC(C)=CCC[C@](C)(O[C@@H]1O[C@H](CO)[C@@H](O)[C@H](O)[C@H]1O)[C@H]1CC[C@]2(C)[C@@H]1[C@H](O)C[C@@H]1[C@@]3(C)CC[C@H](O)C(C)(C)[C@@H]3[C@@H](O[C@@H]3O[C@H](CO)[C@@H](O)[C@H](O)[C@H]3O[C@@H]3OC[C@@H](O)[C@H](O)[C@H]3O)C[C@]12C [Compound 27] | > 100 µM |  | 
